“Also recorded” adds a separate entry of the source.
Experiments:
caspase-3 in HepG2 cells = test: Caspase-3 colorimetric activation assay; assay type: cell-based, human; details: HepG2, 5 and 10 μM, 24 h
Protocol: The activity of caspase-3 was determined using a caspase-3 colorimetric assay kit (Sigma Aldrich) according to the manufacturer's protocol. Briefly, HepG2 cells (1×10^6 cells/well) were treated with 5 and 10 μM of 8i and 8k for 24 h. The cells were harvested and lysed by addition of lysis buffer. Cell lysates were mixed with colorimetric substrate (Ac-DEVD-pNA) and incubated at 37° C. in the dark for 4 h. The absorbance was measured at 405 nm in an ELISA reader. Caspase-3 activity was expressed as the change of the activity compared to the control (FIG. 3).

HepG2 cells = test: Cell cycle analysis, PI staining by flow cytometry; assay type: cell-based, human; details: HepG2, 24 h, 5, 10, and 20 mM as printed
Protocol: For cell cycle distribution studies after treatment with different molar concentrations of 8i and 8k, HepG2 cells were fixed overnight in 70% ethanol, rehydrated in PBS with ribonuclease A (100 μg/ml) and Triton-X (1%) for 30 min at room temperature then PI (at 50 μg/ml) was added and incubated in the dark for 30 min and analyzed with a flow cytometer. Experiments were repeated two times independently.

hLig1-DNA complex = hLig1-DNA complex (Homo sapiens, UniProt P18858); test: Electrophoretic mobility shift assay (EMSA); assay type: binding; details: 25, 50 and 100 μM; hLig1 10 pmol, DNA 1 pmol
Protocol: EMSA was performed as described in Xi Chen et. al, Cancer Res 2008; 68(9):3169-3177 with some modifications, for the interaction study between 8k and hLig1. Of the three oligos used to construct the DNA substrate, one was a 5′-FAM labelled 27-mer oligo with a dideoxy modified 3′ end. Other two oligos of 25-mer and 52-mer were used. These oligos were annealed to obtain a non-ligatable nicked DNA substrate which the ligase enzyme can recognize and bind to, but cannot ligate or release from it. […] Lanes 3-5 (FIG. 6A) contain increasing concentrations of the inhibitor. A shift in signal is seen is lanes 3-5. This shift in the ligase-DNA complex can occur only if the inhibitor binds to the complex of hLig1+DNA and increases the size of the complex. If inhibitor binds to ligase alone, then we would expect fewer signals in lanes 3-5. But since we see an increase in intensity of signal as well as a super-shift in the signal, we can reliably say that the inhibitor binds to the DNA-ligase complex and not separately to either DNA or ligase.

[1] = tested on: MCF-7 (breast adenocarcinoma); test: MTT assay for cell viability, MCF-7; assay type: cell-based, human
Protocol: (§1) The human cancer cell lines e.g. HepG2 (hepatocellular carcinoma, ATCC® HB-8065™), PC-3 (human prostate cancer cells, ATCC® CRL-1435™), MCF-7 (breast adenocarcinoma, ATCC® […]), and mouse embryo fibroblasts (NIH/3T3, ATCC® CRL-1658™), used in the present study were obtained from the ATCC (American Type Culture Collection, USA and maintained in RPMI 1640 (Roswell Park Memorial Institute, Merck) with 10% FBS (Merck), supplemented with 1% antibiotic and antimycotic solution (Gibco, USA) at 37° C. in a humidified incubator with 5% CO2. All stock solutions of the compounds were prepared in cell culture grade DMSO (dimethyl sulfoxide) and stored at −20° C. Compounds were diluted in culture media prior to use in experiments. Annexin V-FITC apoptosis detection kits were purchased from Calbiochem. MTT dye was procured from Sigma-Aldrich. All the flow cytometry experiments were performed using a FACScan (Becton Dickinson, Mountain View, Calif.) flow cytometer, equipped with a single 488 nm argon laser.
(§2) Cell viability was assessed by MTT assay, which is based on the reduction of MTT by mitochondrial dehydrogenases of viable cells to form a purple formazan product. Briefly, cells (5-6×10^3/well) were plated in 96 well plates. After incubating overnight, the cells were treated with […] different concentrations (100, 50, 20, 10, 5, 2.5, 1.25 μM) in triplicates with the cationic lipidated cordiarimide and intermediates for 48 h. Subsequently, 10 μL of MTT (10 mg/mL) was added to each well and incubated for 3 h. The MTT formazan formed by viable cells was dissolved in 100 μL of DMSO and shaken for 10 min. The absorbance was measured on an ELISA reader. Each test was repeated at least three times. The concentration of the compound which gives the 50% growth inhibition value corresponding to IC50, was calculated using GraphPad prism 5 software. In the present invention we have screened 26 lipidated cordiarimides and the results are described in table 1.

hLig1 = hLig1 (Homo sapiens, UniProt P18858); test: Kinetic analysis of ligation inhibition (Lineweaver-Burk); assay type: biochemical; details: 5 and 10 μM
Protocol: We measured the kinetics of hLig1 mediated ligation in the absence are presence of 8k at 5 and 10 μM concentrations and drew Lineweaver-Burk plots (FIG. 6B).

[2] = tested on: HepG2 (hepatocellular carcinoma); test: MTT assay for cell viability, HepG2; assay type: cell-based, human
Protocol: as §1, §2

human ligase I = human ligase I (Homo sapiens, UniProt P18858); test: Ligation assay, DNA ligase I; assay type: biochemical
Text: The ligation assay was done strictly following the assay protocol described in Xi Chen et. al, Cancer Res 2008; 68(9):3169-3177. The DNA molecules 52 mer (5′-3′), 28-mer (5′-3′) and 34-mer (5′-3′) were used to construct a double stranded nicked substrate for the ligase enzyme (FIG. 4). The 34-mer oligo was labelled with 32P-AMP to form a substrate for ligase and to form a ligase-AMP intermediate. During ligation, the ligase would transfer the AMP to the nick forming a phosphodiester bond and seal the nick. The ligated DNA molecule would be larger in size and run higher up on a 7% Urea-containing denaturing acrylamide gel. If an inhibitor is added to the reaction mixture prior to the addition of ligase, this would lead to an inhibition of ligation and a corresponding loss of labelled ligated product in the gel. We would then be able to calculate the percentage of inhibition of ligation by estimating the amount of ligated product in the lane with no inhibitor and comparing it with the lanes containing different inhibitor molecules or with the same inhibitor molecule at different concentrations.

[3] = tested on: HepG2, NH/3T3, PC-3, MCF-7 cell lines; test: MTT assay, summary over the cell line panel; assay type: cell-based; details: across tested cell lines
Protocol: as §1, §2

human ligase I, sequence (P18858 whole entry): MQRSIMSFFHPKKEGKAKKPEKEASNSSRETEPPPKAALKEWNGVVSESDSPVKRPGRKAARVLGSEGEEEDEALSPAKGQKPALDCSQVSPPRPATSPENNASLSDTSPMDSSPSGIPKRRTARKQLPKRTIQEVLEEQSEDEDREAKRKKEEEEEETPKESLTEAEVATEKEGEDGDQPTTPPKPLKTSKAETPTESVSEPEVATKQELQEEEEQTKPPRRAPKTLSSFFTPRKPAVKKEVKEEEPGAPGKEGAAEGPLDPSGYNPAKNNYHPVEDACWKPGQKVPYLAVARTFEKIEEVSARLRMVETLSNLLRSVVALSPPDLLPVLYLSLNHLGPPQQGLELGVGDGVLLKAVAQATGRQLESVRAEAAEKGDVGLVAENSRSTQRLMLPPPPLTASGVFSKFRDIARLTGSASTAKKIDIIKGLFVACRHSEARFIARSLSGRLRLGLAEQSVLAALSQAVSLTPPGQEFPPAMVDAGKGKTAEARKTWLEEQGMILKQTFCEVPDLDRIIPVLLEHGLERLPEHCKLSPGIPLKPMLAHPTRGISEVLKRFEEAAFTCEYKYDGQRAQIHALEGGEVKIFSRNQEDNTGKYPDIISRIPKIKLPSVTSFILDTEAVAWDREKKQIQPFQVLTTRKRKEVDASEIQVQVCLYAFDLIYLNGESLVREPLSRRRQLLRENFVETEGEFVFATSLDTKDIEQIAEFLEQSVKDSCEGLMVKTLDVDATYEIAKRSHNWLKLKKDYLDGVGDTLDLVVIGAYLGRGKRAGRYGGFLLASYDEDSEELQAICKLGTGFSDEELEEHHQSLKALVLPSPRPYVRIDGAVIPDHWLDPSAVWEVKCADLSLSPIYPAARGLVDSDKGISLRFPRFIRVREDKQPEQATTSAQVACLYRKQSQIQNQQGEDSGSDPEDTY
hLig1, sequence (P18858 whole entry): as above
hLig1-DNA complex, sequence (P18858 whole entry, one chain of several): as the sequence (P18858 whole entry) above

## CCCCCCCCCCCC[N+](C)(CCCCCCCCCCCC)CC(=O)NC1CCC(=O)N(CC(=O)c2ccccc2)C1=O (stereo not drawn) [Compound 8k, {[2,6-Dioxo-1-(2-oxo-2-phenyl-ethyl)-piperidin-3-ylcarbamoyl]-methyl}-Didodecyl-methyl-ammonium iodide]
caspase-3 in HepG2 cells
  caspase-3 activation: activated the caspase-3 in HepG2 cells dose dependently; also recorded: activated the casepase-3 in HepG2 cells dose dependently
HepG2 cells
  effect on cell cycle progression: significant accumulation of cells in G0/G1 phase; also recorded: blocked the cell cycle in G0/G1 phase
hLig1-DNA complex
  mode of inhibition by EMSA: un-competitive mode of inhibition
[1]; 48 h
  IC50: > 20 µM
[1]; Homo sapiens, MCF7, 48 h
  IC50: 26.3 µM
hLig1
  mode of inhibition by enzyme kinetics: un-competitively
[2]; 48 h
  IC50: 1.87 µM
[2]; Homo sapiens, HepG2, 48 h
  IC50: 1.8 µM
Human ligase I; 1 μM
  inhibition at 1 µM: ~50%
Human ligase I; 10 μM
  inhibition of ligase I activity: complete inhibition
Human ligase I; screening, FIG. 4 and FIG. 7
  DNA ligase I / ligation inhibition (in words): most prolific inhibitor of ligation; also recorded: inhibition of DNA ligase I activity; also recorded: showed inhibition of DNA ligation
[3]
  antiproliferative / anticancer activity (in words): selective anti-proliferative activity at lower concentrations

Source: patent publication US10266564B2, “Cationic lipid cordiarimide hybrid compounds and a process for preparation thereof” (COUNCIL OF SCIENTIFIC & INDUSTRIAL RESEARCH, priority 2014, dated 2019)
